Earlier results, collected in patent publication US20170274026A1, “METHOD OF MAKING TRITERPENOIDS FROM PETRI DISH CULTUREDANTRODIA CINNAMOMEA” (Ultra-Microrigin Biomedical Technology Co., Ltd., priority 2016, published 2017).

Tested on: cancer cells
Settings: Toxicology in Vitro and International Journal of Gerontology

Compound: C=C(CC[C@@H](C(=O)O)[C@H]1C[C@H](O)[C@@]2(C)C3=CC[C@H]4C(C)(C)[C@@H](O)CC[C@]4(C)C3=CC[C@]12C)C(C)C [MMH01, dehydrosulphurenic acid]
- anti-tumor effect and repressing the growth of cancer cells: effective in anti-tumor and repressing the growth of cancer cells
